Converted amounts (≈) assume the structure as drawn. Like-named read-outs stand apart in the source and are kept apart here.
Experiments:
P. digitatum [1] = experiment: Mode of action test (fungicidal or fungistatic) by transfer of the mycelial disc to plain PDA; assay type: cell-based, Penicillium digitatum; conditions: growth monitored 5 days after transfer to plain PDA
Description: A further test was made (in vitro) to investigate whether the mode of action was fungicidal or fungistatic; the mycelial disc of inoculum from the assay plate was transferred to a plate containing just PDA. Plates were then monitored for growth over the next 5 days. If growth resumed, the compound was classified fungistatic, and if growth was not resumed it was classified as fungicidal.

P. digitatum [2] = experiment: Minimum inhibitory concentration in PDA Petri dishes (mycelial disc); assay type: cell-based, Penicillium digitatum; conditions: 24° C., hyphal growth after 7 days
Description: The minimum inhibitory concentration (MIC) of over 50 compounds that were found in the oil glands of citrus fruits was evaluated (in vitro) by establishing the lowest concentration of the compound where no growth of the pathogen occurred (in vitro) in Petri dishes. Table 5 gives the MIC of the more promising compounds (as compared to imazalil). The requisite amount of each of the compounds to be tested, dissolved in 0.5 ml acetone, was added to a sterile Petri dish (90 mm) containing 15 ml of molten potato dextrose agar (PDA) (50° C.) to give a final concentration of 1 mg ml^−1. The dish was gently agitated to ensure an even distribution of the test compound and the agar was then left to set. The dishes were inoculated using a mycelial disc (8 mm) cut from an agar plate culture of P. digitatum which had not yet begun sporulation. The mycelial discs were placed in the center of each test dish and then put at 24° C. Fungal inhibition was monitored by measuring the diameter of hyphal growth after 7 days.

Alternaria citri = experiment: In vitro agar diffusion assay; assay type: cell-based; conditions: Five mg on paper disc; Total inhibition is the maximal inhibition, 62.3 cm^2
Geotrichum Candidum = experiment: In vitro agar diffusion assay; assay type: cell-based; conditions: Five mg on paper disc; Total inhibition is the maximal inhibition, 62.3 cm^2
Penicillium italicum = experiment: In vitro agar diffusion assay; assay type: cell-based; conditions: Five mg on paper disc; Total inhibition is the maximal inhibition, 62.3 cm^2
Penicillium = experiment: Decay of lemons inoculated as in Example 2 and treated with citral emulsions; assay type: in vivo, Penicillium digitatum on lemons
Description: Unblemished grapefruit were harvested from the orchard and on the same day sorted again in the laboratory to eliminate injured fruit. The grapefruit were washed with tap water and air-dried. Each fruit was then inoculated by piercing its flavedo tissue 1.5 mm deep with a tool incorporating three needles at three different sites. Prior to each piercing, the tool was immersed in a spore suspension of Penicillium digitatum (10^6 spores/ml). The inoculated grapefruit were kept at 17° C. and 85% relative humidity for 24 hours after which the grapefruit were divided into six groups and grapefruit from each group were treated by dipping for two minutes in: (a) water; (b) 25% Ethanol (EtOH); (c) 0.2% Geraniol in 25% EtOH; (d) 0.1% Citral in 25% EtOH, (e) 0.2% Citral in 25% EtOH and (f) 0.5% Citral in 25% EtOH.
Lemons were inoculated as shown in Example 2 and treated with and without 25% of ethanol to check whether the 5000 ppm of the emulsifier Tween 20 could stabilize the antifungal activity of citral. […] Probably the emulsifier enables the formation of a microcolloidal stable emulsion, which prevents the phytotxicity by allowing uniform dispersion of citral, which is phytotoxic by itself in these concentrations. Thus, Tween 20 combined with the antioxidant BHA could substitute for the ethanol in the formulation.
Lemons inoculated with Penicillium as shown in Example 2 were dipped for 2 minutes in an aqueous solution comprising citral, emulsifier (Triton X100) and BHA at various concentrations. The concentration of Citral is 1.0%. The control solution was comprised of 0.5% Triton X100.
Lemons inoculated with Penicillium as shown in Example 2 were treated with an aqueous solution comprising 0.5% Citral, 0.3% BHA, Tween 20 and imazalil and stored at 20° C. for a period of 21 days.

lemon fruit = experiment: Peel blemish index of lemon fruit after 1-minute dip in citral with antioxidant BHA; assay type: in vivo; conditions: BHA by itself
Description: The antioxidant reduces the oxidation rate of the essential oils leading to their decomposition. It further reduces the inherent phytotoxicity of the essential oil. The antioxidant may be chosen from the group comprising of compounds such as but not limited to: butylated hydroxyanisole (BHA), ascorbic acid, isoascorbic acid, α-tocopherol, butylated hydroxytoluene (BHT), β-carotene or their mixtures. Preferred concentrations of the antioxidant in the formulation of the invention are in the range of from about 0.05% to about 0.8% (w/v).
The peel blemish index is determined by
(§1) The blemish score is 0 =no blemishes; 1=light blemishes; 2=moderate blemishes; and 3=severe blemishes.

lemons = experiment: Induction of phytoalexins (scoparone, scopoletin) in lemons; assay type: in vivo, lemon; conditions: injection into the albedo tissue of lemons
Description: Treating uninoculated lemons by injecting 5 μl photo-oxidized limonene into the albedo tissue, just below the flavedo, elicited in these lemons the production of scoparone and scopoletin up to levels adequate to protect the fruit from the pathogen. […] Such injury of yellow fruit gave much lower response showing that the maturity of fruit affects this resistance response and older fruit is less protected (FIG. 2). […] Furthermore much higher levels of both scoparone (over 1000 μg/g fresh weight) and of scopoletin (over 200 μg/g fresh weight) were found after dipping inoculated fruit in the crude dichloromethane extract that prevented decay (FIG. 7). The phytoalexins level found was several fold of the amount required to control completely the pathogens. Thus apparently, the formed limonene hydroperoxides form reactive oxygen species, which elicit the immune system of the plant. Such reactive oxygen species effect the pathogen as well. These reactive oxygen species have a short life and decompose well before the fruit is distributed to the market.

Penicillium digitatum [3] = experiment: Decay of lemons inoculated with Penicillium 10^4 spores/ml and dipped; assay type: in vivo, Penicillium digitatum on lemons; conditions: limonene or peel extract not irradiated or exposed to sunlight
Description: Lemon fruit flavedo (exocarp) was taken and extracted overnight in dichloromethane, then exposed to sunlight for about 18 hours until the color of the dichloromethane extract turned brown. The flavedo was blended and filtered through a layer of Whatman paper. The extracted solution was evaporated to remove the dichloromethane and the dense liquor was further separated by chromatography with a silica 60 column using dichloromethane as a carrier. Two fractions of dichloromethane, one green and the other colorless, were obtained after chromatography. The crude active extract was isolated by evaporation of the green dichloromethane fraction. […] Effect of the compounds on pathogen development on the fruit was checked daily during storage.
The antifungal activity of the products prepared in the two different routes was checked in the same method. […] Decay was evaluated at specific intervals during a period of 26 days.
Lemons inoculated with Penicillium (10^4 spores/ml) were dipped in an aqueous solution comprising citral, a detergent (Tween 20), other essential oil components as well as a dichloromethane crude extract of lemon flavedo exposed to sunlight. Decay was evaluated at specific intervals during a period of 20 days.
Pure limonene was exposed to sunlight for three hours. […]

[4] = test system: wild type Candida albicans; experiment: Growth of Candida albicans cells in culture broth (OD 600 nm); assay type: cell-based
Description: Cells of wild type Candida albicans (1×10^3) were grown on culture broth at 37° C. with different concentration of extracts 50-100 μl. OD was determined at 600 nm. The following treatments in 6 different tubes were given: […] TUBE 2. 2000 ppm Citral+25% Ethanol+2000 ppm Tween-20+300 ppm BHA. […] TUBE 6. 25% ethanol+2000 ppm Tween-20+500 ppm β-CD+300 ppm BHA.

Erwinia carotovora = experiment: Control of bacterial growth (other experiments, data not shown); assay type: cell-based
Cladosporium herbarum = experiment: Inhibition of Cladosporium herbarum growing on inoculated corn cob; assay type: in vivo; conditions: dissolved in 25% ethanol
[5] = test system: microbial population in meat cuts of beef; experiment: Total count of microbial population in beef meat cuts after dip; conditions: 30 seconds dip in 0.2% Citral dissolved in 20% ethanol; 2 weeks at 1° C.
Description: The meat cuts were then stored in 1° C. and 85% relative humidity and a total count of the microbial population in each meat cut was carried out 2 weeks after treatment.

P. digitatum [6] = experiment: Control of fungal growth (other experiments, data not shown); assay type: cell-based, Penicillium digitatum
Penicillium digitatum [7] = experiment: Decay of Penicillium-inoculated grapefruit after 2-minute dip; assay type: in vivo, Penicillium digitatum on grapefruit
Description: Unblemished grapefruit were harvested from the orchard and on the same day sorted again in the laboratory to eliminate injured fruit. The grapefruit were washed with tap water and air-dried. Each fruit was then inoculated by piercing its flavedo tissue 1.5 mm deep with a tool incorporating three needles at three different sites. Prior to each piercing, the tool was immersed in a spore suspension of Penicillium digitatum (10^6 spores/ml).

[8] = test system: non-inoculated Washington oranges; experiment: Decay percentage of non-inoculated Washington oranges during storage; assay type: in vivo, Washington navel oranges
Description: Non-inoculated Washington navel oranges were divided into […] groups which were treated as follows: (a) no treatment; (b) dipped in 50% Ethanol; (c) dipped in 0.2% Citral in 0.02% L-77 Emulsifier (aqueous emulsion); (d) dipped in 0.2% Citral in 50% Ethanol; and (e) dipped in a 0.2% aqueous Imazalil solution.
Oranges were then stored for four months at 15° C. in 50-75% relative humidity and the percentage of rotten fruit in each group was measured at different time periods after storage.

fruit = experiment: Phytotoxicity of citral solutions comprising emulsifiers (1-minute fruit dip); conditions: in vivo
Description: as §1

[9] = Penicillium digitatum, 168 h, read-out: MIC

Compound | Mode of action (P. digitatum [1]) | MIC (P. digitatum [2]; [9]) [µg/mL] | GROWTH INHIBITION AREA OF THE PATHOGEN (Alternaria citri) | GROWTH INHIBITION AREA OF THE PATHOGEN (Geotrichum Candidum) | GROWTH INHIBITION AREA OF THE PATHOGEN (Penicillium italicum) | further results
C=C(C)C1CC=C(C)C(O)C1 (mixture of isomers) [Carveol] | Fungistatic | 1000 |  |  |  | 
CCCCCCCCO [Octanol] | Fungicidal | 100 (≈ 768 µM) | Total inhibition | Total inhibition | Total inhibition | 
CCCCCCCCCO [Nonanol] | Fungistatic | 200 (≈ 1390 µM) |  |  |  | 
O=CC=Cc1ccccc1 [Cinnamaldehyde] | Fungicidal | 400 (≈ 3030 µM) | Total inhibition | 24.2 cm^2 | Total inhibition | 
CCCCCCCCCCO [Decanol] | Fungistatic | 50 (≈ 316 µM) | Total inhibition | 0.95 cm^2 | Total inhibition | 
COc1ccc(O)c(C(C)(C)C)c1 [BHA, butylated hydroxyanisole] |  |  |  |  |  | activity of citral in preventing the development of the pathogen (Penicillium; 0.1% BHA with 1.0% citral and Triton X100, 2 minutes dip): enhancing the activity of citral; Peel blemish (lemon fruit): did not cause any blemish
CC(C)=CCCC(C)CC=O (stereo not shown) [Citronellal] | Fungistatic | 600 (≈ 3890 µM) |  |  |  | 
C=C(C)C1CC=C(C)CC1 (stereo not shown) [limonene, 1-methyl-4-(1-methylethenyl)cyclohexene] |  |  |  |  |  | elicitation of phytoalexin (scoparone, scopoletin) production (lemons): eliciting the endogenous resistance mechanisms; inhibition of decay (Penicillium digitatum [3]): not adequately active
CC(C)=CCCC(C)=CC=O [Citral, 3,7-dimethyl-2,6-octadienal] | Fungicidal | 400 (≈ 2630 µM) | Total inhibition | 10.6 cm^2 | Total inhibition | elicitation of phytoalexin (scoparone, scopoletin) production (lemons): did not elicit the same protective response; cell growth ([4]; 2000 ppm Citral in 25% ethanol and 2000 ppm Tween 20): completely inhibited cell growth; cell growth ([4]; 2000 ppm Citral, 25% ethanol, 2000 ppm Tween 20 together with β-CD 500 ppm, 300 ppm BHA): completely inhibited cell growth; controlling growth of the bacteria (Erwinia carotovora): effective in controlling growth; inhibition of the pathogen (Cladosporium herbarum): marked inhibition; decay control (Penicillium; 0.5% citral added to 1 ppm imazalil, 0.3% BHA, Tween 20, 20° C., 21 days): did not control decay adequately; decay control (Penicillium; 0.5% citral added to 10 ppm imazalil, 0.3% BHA, Tween 20, 20° C., 21 days): prevented decay completely; total counts of microbial population, relative to the non-treated meat cuts [5]: less than 10%; controlling growth of the fungi (P. digitatum [6]): effective in controlling growth; fruit showing decay (Penicillium digitatum [7]; 0.2% Citral dissolved in 25% EtOH, 28 days after inoculation): 20%; decay of fruit (Penicillium digitatum [7]; 0.2% Citral dissolved in 25% EtOH, until 18 days after inoculation): completely inhibited decay; decay of fruit (Penicillium digitatum [7]; 0.5% Citral in 25% EtOH, ascribed to phytotoxicity): enhanced decay
C=C(C)C1CC=C(C=O)CC1 (stereo not shown) [Perillaldehyde] | Fungicidal | 400 (≈ 2660 µM) | Total inhibition | Total inhibition | Total inhibition | 
CCCCCCCC=O [Octanal] |  |  | 5.3 cm^2 | 3.6 cm^2 | 2.6 cm^2 | 
C=C(C)[C@@H]1CC=C(CO)CC1 [Perillalcohol] | Fungicidal |  |  |  |  | MIC (P. digitatum [2]): 0.4 mg ml^−1 agar
C=CCOC(Cn1ccnc1)c1ccc(Cl)cc1Cl (stereo not shown) [Imazalil, reference compound] | Fungicidal | < 25 | 42.8 cm^2 | 8.3 cm^2 | Total inhibition | decay control (Penicillium; imazalil 1 and 10 ppm, stored at 20° C. for 21 days): insufficient to control completely decay; % of rotten fruit ([8]; 0.5 months of storage at 15° C.): 0%; % of rotten fruit ([8]; 1 month of storage at 15° C.): 2%; % of rotten fruit ([8]; 2 months of storage at 15° C.): 4%; % of rotten fruit ([8]; 3 months of storage at 15° C.): 5%; % of rotten fruit ([8]; 4 months of storage at 15° C.): 8%
polyoxyethylene sorbitan monooleate [Tween 80] |  |  |  |  |  | Phytotoxicity (peel blemish index as in Table 1) (fruit): 0

Reference: patent US7465469B2, “Microbiocidal formulation comprising essentials oils or their derivatives” (State of Israel, Ministry of Agriculture & Rural …, priority 2001, dated 2008)
